Experimental data as given in ChEMBL document CHEMBL3769323, “Design, synthesis and bioevaluation of tacrine hybrids with cinnamate and cinnamylidene acetate derivatives as potential anti-Alzheimer drugs” (Medchemcomm, 2015).
Activity calls are given as the source filed them. The calls are words filed in the database; no cut-off is given here.

Tests used:
[1] = tested on: SH-SY5Y; experiment: Cytotoxicity against human SH-SY5Y cells assessed as cell viability at 1.5 uM after 25 hrs by MTT assay relative to control; type: cell-based
[2] = target: Acetylcholinesterase (Electrophorus electricus, UniProt O42275); experiment: Inhibition of electric eel AChE preincubated for 15 mins followed by addition of acetylcholine iodide as substrate by Ellman's assay
Acetylcholinesterase, sequence (O42275 whole entry): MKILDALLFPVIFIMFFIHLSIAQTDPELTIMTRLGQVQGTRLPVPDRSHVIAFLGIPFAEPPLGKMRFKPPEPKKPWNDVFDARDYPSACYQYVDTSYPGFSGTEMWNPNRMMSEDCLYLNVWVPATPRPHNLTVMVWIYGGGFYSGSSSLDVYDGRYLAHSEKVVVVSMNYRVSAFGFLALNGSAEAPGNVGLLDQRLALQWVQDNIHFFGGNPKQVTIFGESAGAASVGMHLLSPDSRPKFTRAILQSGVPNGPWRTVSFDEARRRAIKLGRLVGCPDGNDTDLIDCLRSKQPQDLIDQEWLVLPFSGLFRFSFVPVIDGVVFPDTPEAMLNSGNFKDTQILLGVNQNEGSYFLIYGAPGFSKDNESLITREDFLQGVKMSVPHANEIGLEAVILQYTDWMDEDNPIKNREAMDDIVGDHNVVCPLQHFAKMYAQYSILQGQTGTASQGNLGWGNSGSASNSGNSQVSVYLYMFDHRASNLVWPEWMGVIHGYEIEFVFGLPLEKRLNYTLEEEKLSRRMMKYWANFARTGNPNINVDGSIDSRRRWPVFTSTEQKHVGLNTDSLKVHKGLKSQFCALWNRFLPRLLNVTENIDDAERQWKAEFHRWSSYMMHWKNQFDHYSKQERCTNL

[3] = Antioxidant activity assessed as DPPH radical scavenging activity at 1 mM after 30 mins; type: physicochemical; conditions: 0.5 h, 1000 µM
[4] = tested on: SH-SY5Y; experiment: Cytotoxicity against human SH-SY5Y cells assessed as cell viability at 1.5 to 5 uM after 25 hrs by MTT assay; type: cell-based
[5] = tested on: SH-SY5Y; experiment: Neuroprotective activity against human SH-SY5Y cells assessed as reduction of H2O2-induced oxidative stress at 5 uM preincubated with compound for 1 hr followed by H2O2 addition for 24 hrs by MTT reduction assay; type: functional, cell-based
[6] = Antioxidant activity assessed as DPPH radical scavenging activity after 30 mins; type: physicochemical
[7] = Cytotoxicity against ovarian cancer cells (unknown origin); type: cell-based; conditions: Cancer cell lines
[8] = tested on: SH-SY5Y; experiment: Neuroprotective activity against human SH-SY5Y cells assessed as reduction of H2O2-induced oxidative stress at 2.5 uM preincubated with compound for 1 hr followed by H2O2 addition for 24 hrs by MTT reduction assay; type: functional, cell-based
[9] = target: Amyloid-beta precursor protein (Homo sapiens) (UniProt P05067); experiment: Inhibition of Amyloid beta (1 to 42) (unknown origin) self-induced aggregation at 80 uM for 24 hrs by Thioflavin T-based fluorometric assay
Amyloid-beta precursor protein (Homo sapiens), sequence (P05067 whole entry): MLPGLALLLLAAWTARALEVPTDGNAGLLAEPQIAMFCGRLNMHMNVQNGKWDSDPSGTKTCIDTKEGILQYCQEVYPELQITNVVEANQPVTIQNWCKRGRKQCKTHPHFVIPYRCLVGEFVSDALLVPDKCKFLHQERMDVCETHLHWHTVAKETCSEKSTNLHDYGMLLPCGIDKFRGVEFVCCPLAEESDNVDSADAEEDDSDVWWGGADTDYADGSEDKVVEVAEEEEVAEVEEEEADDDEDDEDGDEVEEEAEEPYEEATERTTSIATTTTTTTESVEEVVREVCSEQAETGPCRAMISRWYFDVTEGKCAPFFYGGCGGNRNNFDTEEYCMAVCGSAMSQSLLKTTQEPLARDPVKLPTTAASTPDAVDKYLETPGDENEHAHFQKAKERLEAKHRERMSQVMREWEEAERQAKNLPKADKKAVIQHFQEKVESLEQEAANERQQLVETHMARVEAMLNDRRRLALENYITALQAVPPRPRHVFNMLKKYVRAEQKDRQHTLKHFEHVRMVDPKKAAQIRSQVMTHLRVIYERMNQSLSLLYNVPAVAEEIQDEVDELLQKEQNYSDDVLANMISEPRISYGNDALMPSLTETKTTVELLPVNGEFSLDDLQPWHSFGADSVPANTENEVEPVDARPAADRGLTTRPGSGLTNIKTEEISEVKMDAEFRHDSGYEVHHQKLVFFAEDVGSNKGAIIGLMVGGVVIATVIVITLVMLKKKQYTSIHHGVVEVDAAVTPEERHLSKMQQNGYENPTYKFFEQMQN

[10] = tested on: SH-SY5Y; experiment: Neuroprotective activity against human SH-SY5Y cells assessed as reduction of Amyloid beta 42-induced cytotoxicity at 2.5 uM preincubated with compound for 1 hr followed by Amyloid beta 42 peptide addition for 24 hrs by MTT reduction assay; type: functional, cell-based
[11] = tested on: SH-SY5Y; experiment: Cytotoxicity against human SH-SY5Y cells assessed as cell viability at 2.5 uM after 25 hrs by MTT assay relative to control; type: cell-based

SMILES	IC50 [2] [nM]	Activity [3] [%]	Activity [4]	other results
O=C(/C=C/C=C/c1ccccc1)NCCCCNc1c2c(nc3ccccc13)CCCC2	620	23	–	Activity [1]: Toxic
O=C(/C=C/c1ccccc1)NCCNc1c2c(nc3ccccc13)CCCC2	770	7.9	Toxic	–
O=C(/C=C/C=C/c1ccc2c(c1)OCO2)NCCNc1c2c(nc3ccccc13)CCCC2	300	26.2	Toxic	Activity [1]: Toxic
O=C(/C=C/C=C/c1ccc(O)c(O)c1)NCCNc1c2c(nc3ccccc13)CCCC2	1090	–	Non-toxic	Activity [5]: Active; EC50 [6]: 9500 nM
COc1ccc(/C=C/C(=O)NCCCNc2c3c(nc4ccccc24)CCCC3)cc1OC	90	16.8	–	IC50 [7]: 19500 nM; Activity [8]: Active; inhibition [9]: 56.5%
COc1ccc(/C=C/C(=O)NCCNc2c3c(nc4ccccc24)CCCC3)cc1OC	90	8.8	–	IC50 [7]: 10400 nM; Activity [8]: Active; Activity [10]: Active; inhibition [9]: 19.6%
O=C(/C=C/C=C/c1ccccc1)NCCNc1c2c(nc3ccccc13)CCCC2	320	15.6	Toxic	Activity [1]: Toxic
O=C(/C=C/c1ccc2c(c1)OCO2)NCCCNc1c2c(nc3ccccc13)CCCC2	130	15.4	Toxic	IC50 [7]: 5820 nM; inhibition [9]: 8.27%
O=C(/C=C/c1ccc2c(c1)OCO2)NCCCCNc1c2c(nc3ccccc13)CCCC2	730	18.6	Toxic	–
O=C(/C=C/c1ccccc1)NCCCNc1c2c(nc3ccccc13)CCCC2	380	16.3	Toxic	Activity [11]: Toxic
O=C(/C=C/c1ccc2c(c1)OCO2)NCCNc1c2c(nc3ccccc13)CCCC2	180	12.2	Toxic	inhibition [9]: 30.9%
O=C(/C=C/C=C/c1ccc(O)c(O)c1)NCCCNc1c2c(nc3ccccc13)CCCC2	480	–	Non-toxic	EC50 [6]: 9100 nM
O=C(/C=C/C=C/c1ccc2c(c1)OCO2)NCCCNc1c2c(nc3ccccc13)CCCC2	130	20.8	Toxic	IC50 [7]: 2500 nM; inhibition [9]: 72.2%
O=C(/C=C/c1ccc(O)c(O)c1)NCCCNc1c2c(nc3ccccc13)CCCC2	980	–	Toxic	Activity [5]: Active; EC50 [6]: 11300 nM
COc1ccc(/C=C/C(=O)NCCCCNc2c3c(nc4ccccc24)CCCC3)cc1OC	390	16.1	–	–
O=C(/C=C/c1ccc(O)c(O)c1)NCCNc1c2c(nc3ccccc13)CCCC2	840	–	Toxic	EC50 [6]: 12300 nM
O=C(/C=C/C=C/c1ccccc1)NCCCNc1c2c(nc3ccccc13)CCCC2	290	16.9	Toxic	–
O=C(/C=C/c1ccccc1)NCCCCNc1c2c(nc3ccccc13)CCCC2	850	22.5	–	Activity [10]: Active
